Measurements from US12220446B2, “Use of upstream open reading frame 45aa-uORF nucleotide sequence of PTEN gene and polypeptide coded by 45aa-uORF” (THE FIRST AFFILIATED HOSPITAL, SUN YAT-SEN UNIVERSITY, priority 2017, dated 2025).

What was measured:
U251 neuroglioma cells = test: Lentiviral overexpression of 45aa-uORF in U251 cells: cell cycle, CCK-8 growth curve, clone formation assay, soft agar; assay type: cell-based; details: stably overexpressed via lentivirus vector vs U251-GFP control cells
Description: A vector for overexpressed 45aa-uORF-GFP (the skeleton of the vector is pCDH-CMV-MCS-EF1-Puro) was constructed and then used to transfect into HEK-293T cells together with lentivirus skeleton vectors PSPAX2, PMD2G in a ratio of 1:3:1 to package the lentivirus. The medium supernatants with the lentivirus were collected at 48 hours and 72 hours, respectively, and then used to infect U251 cells (added with 8 μg/ml polybrene to improve the infection efficiency). Puromycin ([…]) was employed for screening and removed three days later, and then the cells were proliferated normally. […]
1.5 Million U251 glioma cells of lentivirus overexpressed 45aa-uORF were inoculated into a T25 culture flask. […] Then, after being centrifuged and washed with PBS once, the precipitate was resuspended in 25 μg/mL Propidium Iodide (PI, sigma)/PBS solution, stained for 30 minutes away from light, and then detected on cell-cycle distribution thereof.
U251-GFP control cells or U251-45aa-uORF-GFP cells were inoculated into a 96-well plate in a quantity of 2000 cells per well. […] After cell adherence to the wall, the CCK-8 (Dojindo, CK04) reagent was added by 10 μL per well every 24 hours for culture at 37° C. for 1-4 hours, and then the absorbance (OD) of […] was detected. The absorbance value was directly proportional to the number of cells. […]

U251 cells [1] = test: Ability of FITC-labelled micropeptide to enter cells (fluorescence microscopy); assay type: cell-based; details: FITC-attached micropeptide, 20 μM, 4 hours
Description: U251 cells were inoculated onto a glass slide at the density of 50%, and different concentrations of PTEN-45aa micropeptide t attached with FITC fluorescent groups (the micropeptide was dissolved in DMSO with a concentration being 20 μg/μL) were added to treat cells for 4 hours, then fixed with Faure Marin, and observed and photographed under a fluorescence microscope.

U251 cells [2] = test: Cell viability with CCK-8 after adding chemically synthesized polypeptide; assay type: cell-based; details: 25 μM, washed out after 4 hours, culture for 72 hours
[3] = tested on: U251 neuroglioma transplanted tumors; test: U251 tumor subcutaneously implanted in nude mice, intratumoral peptide injection; assay type: in vivo; details: 25 μg/tumor every other day, 5-6 medications, vs control polypeptide of shuffled sequence
Description: In one aspect, the anti-tumor ability of the 45aa-uORF coded micropeptide is verified in vivo by animal experiments in the present invention. Mice are subcutaneously inoculated with 2 million U251 neuroglioma cells. Thirty days later, transplanted tumors are treated with the chemically synthesized 45aa-uORF coded micropeptide (25 ug/tumor) every other day.
U251 cells were inoculated to the left and right sides of nude mice by 2 million at each point. Thirty days later, the formation of tumors was observed, and the tumors were averagely divided into a control group and an experimental group by size (five nude mice and ten tumors in each group). The control group was injected with a control polypeptide every other day, and the experimental group was injected with the 45aa-uORF polypeptide every other day. Each tumor was injected with 25 μg synthetic peptide. The long diameters and short diameters of the tumors were measured before the medication, and after 5-6 times medications, the nude mice were sacrificed, and tumors were taken out, photographed and weighed. Tumor volume=½*long diameter*the square of short diameter

[4] = listed as 45aa-uORF coded polypeptide

With “MRDGGGRGPEPLSAPVSSRGGSALGEPAGLRRRQRRRFSPPLRLF (listed as Homo sapiens) [PTEN-45aa, oligopeptide of 45 amino acids coded by the 45aa-uORF in the 5′UTR of human PTEN gene]” the “growth and proliferation of U251 glioma cells” value (U251 neuroglioma cells) was “significantly suppress the growth and proliferation”, the “clone formation of U251 neuroglioma cells (CFA, soft agar)” value (U251 neuroglioma cells; two weeks) was “significantly suppress the growth, proliferation and clone formation” and the “ability of the micropeptide to enter cells” value (U251 cells [1]; [4]) was “can enter U251 cells”. The “ability of the micropeptide to enter cells” value (U251 cells [1]; listed as PTEN-45aa micropeptide) was “could enter the U251 cells smoothly”, the “growth and proliferation of glioma cells (cell viability, CCK-8)” value (U251 cells [2]; listed as 45aa-uORF coded micropeptide) was “significantly suppress the growth and proliferation” and the “growth and proliferation of glioma cells (cell viability, CCK-8)” value (U251 cells [2]; [4]) was “significantly suppress the growth of glioma cells”. The “growth and formation of U251 transplanted tumors” value [3] was “significantly suppress the growth and formation of the tumors”.
